Test results reported in the supplement of paper PMC7661543.
± gives the standard deviation of the averaged measurements.

Tests used:
Test in all cases: relative cell number vs DMSO control (72 h) (% of DMSO); higher = less growth inhibition (more cells)
Conditions in all cases: sgRNA knockout: sgNT
ZR-75-1 = tested on: ZR-75-1
Description: (§1)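 QMAP-Seq: a pool of 5 breast cancer cell lines (ZR-75-1, SKBR3, HCC-38, MDA-MB-231, BT-20), each carrying 12 doxycycline-inducible Cas9 sgRNA perturbations (11 knockouts plus non-targeting sgNT), was treated with compounds for 72 h at four 10-fold doses (10 nM-10 uM or 1 nM-1 uM range). Barcodes were amplified and sequenced, and cell number was interpolated from 293T spike-in standard curves. The result is expressed as % of the median of DMSO wells. Two biological replicates.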

BT-20 = tested on: BT-20
Description: as §1

MDA-MB-231 = tested on: MDA-MB-231
Description: as §1

SKBR3 = tested on: SKBR3
Description: as §1

HCC-38 = tested on: HCC-38
Description: as §1

Compound	relative cell number (ZR-75-1; 1 nM)	relative cell number (ZR-75-1; 10 nM)	relative cell number (ZR-75-1; 100 nM)	relative cell number (ZR-75-1; 1000 nM)	relative cell number (BT-20; 1 nM)	relative cell number (BT-20; 10 nM)	relative cell number (BT-20; 100 nM)	relative cell number (BT-20; 1000 nM)	relative cell number (MDA-MB-231; 1 nM)	relative cell number (MDA-MB-231; 10 nM)	relative cell number (MDA-MB-231; 100 nM)	relative cell number (MDA-MB-231; 1000 nM)	relative cell number (SKBR3; 1 nM)	relative cell number (SKBR3; 10 nM)	relative cell number (SKBR3; 100 nM)	relative cell number (SKBR3; 1000 nM)	relative cell number (HCC-38; 1 nM)	relative cell number (HCC-38; 10 nM)	relative cell number (HCC-38; 100 nM)	relative cell number (HCC-38; 1000 nM)	relative cell number (ZR-75-1; 10000 nM)	relative cell number (BT-20; 10000 nM)	relative cell number (MDA-MB-231; 10000 nM)	relative cell number (SKBR3; 10000 nM)	relative cell number (HCC-38; 10000 nM)
N#Cc1ccc(C(c2ccc(C#N)cc2)n2cncn2)cc1 [Letrozole]	109 ± 14	93.6 ± 24	106 ± 30	60.6 ± 7.9	83 ± 35	89.6 ± 27	95.8 ± 6.8	104 ± 16	84.7 ± 9.7	109 ± 10	77.2 ± 7.3	106 ± 11	87.5 ± 18	97.5 ± 23	110 ± 22	121.06 ± 0.081	94.5 ± 6.1	107 ± 13	111 ± 12	95 ± 12	–	–	–	–	–
Cc1ccc(F)c(NC(=O)Nc2ccc(-c3cccc4[nH]nc(N)c34)cc2)c1 [Linifanib]	–	86.4 ± 18	97.6 ± 3.9	93.6 ± 40	–	73.8 ± 4.6	105 ± 23	89.1 ± 1	–	70.5 ± 23	112 ± 30	100 ± 22	–	88.8 ± 1.8	107 ± 3.3	121 ± 7.9	–	94.4 ± 14	77.6 ± 10	118 ± 15	33.4 ± 4.6	60.5 ± 3.3	22.1 ± 0.58	40 ± 0.42	55.4 ± 4.2
C[C@]1(O)C[C@@H](c2nc(-c3ccc4ccc(-c5ccccc5)nc4c3)c3c(N)nccn32)C1 [Linsitinib]	–	90.6 ± 23	95.7 ± 6.6	70.9 ± 15	–	111 ± 19	121 ± 28	79.2 ± 3.2	–	116 ± 10	104 ± 14	65.3 ± 20	–	94.7 ± 12	104 ± 18	78.71 ± 0.77	–	95.4 ± 8	99.1 ± 12	78 ± 3.6	65.7 ± 3.7	102 ± 11	64.9 ± 13	78.1 ± 11	70.1 ± 4.4
Nc1nc(OCc2cc(Br)cs2)c2[nH]cnc2n1 [Lomeguatrib]	–	103 ± 42	127 ± 3.4	78.2 ± 47	–	101 ± 13	115 ± 3.5	89.5 ± 11	–	117 ± 22	125 ± 8.7	127.8 ± 0.46	–	111 ± 1.7	68.1 ± 13	104 ± 14	–	98.2 ± 6.3	88.5 ± 10	89.6 ± 22	74.8 ± 5.2	93.7 ± 13	86.4 ± 4.3	90.4 ± 27	81.9 ± 8.3
CC[C@H](C)C(=O)O[C@H]1C[C@@H](C)C=C2C=C[C@H](C)[C@H](CC[C@@H]3C[C@@H](O)CC(=O)O3)[C@H]21 [Lovastatin]	–	138 ± 33	67.2 ± 6.6	100.5 ± 0.94	–	114 ± 20	78.7 ± 11	89.9 ± 35	–	112 ± 28	52.2 ± 31	83 ± 29	–	103 ± 22	81.1 ± 12	93.1 ± 11	–	96.5 ± 11	85.9 ± 6.2	102 ± 22	88.2 ± 6.5	78.8 ± 12	15.7 ± 6.2	78.4 ± 22	73.4 ± 13
CC(C)C[C@@H](C=O)NC(=O)[C@H](CC(C)C)NC(=O)[C@H](CC(C)C)NC(=O)OCc1ccccc1 [MG132]	–	80.8 ± 16	97.1 ± 11	24.7 ± 3.3	–	102 ± 21	113 ± 32	35.4 ± 8.1	–	121 ± 1.8	77.3 ± 41	7.19 ± 1.8	–	111 ± 7.2	99.3 ± 22	14 ± 1.8	–	92.8 ± 13	95.7 ± 16	5.97 ± 0.84	6.78 ± 1.8	12 ± 0.91	7.81 ± 2.5	9.81 ± 0.2	8.104 ± 0.025
O=C(O)CC[C@H]1CC[C@@](c2cc(F)ccc2F)(S(=O)(=O)c2ccc(Cl)cc2)CC1 [MK0752]	–	120 ± 36	88.2 ± 30	107 ± 22	–	137 ± 39	112 ± 41	145 ± 3.2	–	170 ± 61	93.4 ± 20	124 ± 7.5	–	172 ± 42	114 ± 19	107 ± 24	–	135 ± 24	107 ± 2.6	112 ± 14	127 ± 28	134 ± 1.4	94.4 ± 51	111 ± 27	115 ± 43
C=CCn1c(=O)c2cnc(Nc3ccc(N4CCN(C)CC4)cc3)nc2n1-c1cccc(C(C)(C)O)n1 [MK1775]	–	138 ± 30	77.7 ± 43	51.7 ± 24	–	95.2 ± 12	84.17 ± 0.44	42.9 ± 2.7	–	81.5 ± 35	74 ± 8	20.3 ± 8	–	112 ± 1.2	108 ± 18	29.8 ± 14	–	97.2 ± 20	76.6 ± 6.7	35.3 ± 2.2	15.6 ± 6	31.7 ± 1.8	13.8 ± 6.6	14.7 ± 1.8	29.548 ± 0.018
CC(C)C[C@H](NC(=O)CNC(=O)c1cc(Cl)ccc1Cl)B(O)O [MLN2238]	–	93.7 ± 33	81.4 ± 28	17.8 ± 7.5	–	85.1 ± 6.1	91 ± 27	40.2 ± 3.5	–	94.1 ± 17	65.3 ± 5	8.44 ± 0.14	–	87.5 ± 27	54.1 ± 9.5	9.25 ± 0.68	–	91.7 ± 16	50.2 ± 2.5	5.9 ± 0.86	10.9 ± 8	15 ± 6.4	4.72 ± 0.16	2.47 ± 0.24	4.82 ± 1.7
Cc1ccc(NC(=O)c2ccc(CN3CCN(C)CC3)cc2)cc1Nc1nc(-c2cccnc2)cs1 [Masitinib]	–	70.6 ± 28	76.2 ± 9.5	94.7 ± 34	–	92.1 ± 2.6	80.9 ± 25	95.2 ± 38	–	91 ± 41	74.9 ± 12	64.2 ± 30	–	78.7 ± 58	99.4 ± 23	67.4 ± 6.4	–	106 ± 6.1	78.71 ± 0.36	76.6 ± 17	34.2 ± 1.2	70.8 ± 23	50.7 ± 4.3	66.6 ± 0.77	97.6 ± 2.4
